Laboratory results reported in publication PMC8496750, “Identification of the organic anion transporting polypeptides responsible for the hepatic uptake of the major metabolite of epyrifenacil, S‐3100‐CA, in mice” (Pharmacology Research & Perspectives, 2021).

Legend:
rat Oatp1a4 = target: T1, rat Oatp1a4 (Rattus norvegicus, UniProt O35913); assay: Uptake assay for radiolabeled substrates, rat Oatp1a4 expressing 293FT cells; conditions: 10‐min incubation
T1 sequence (O35913 1-661): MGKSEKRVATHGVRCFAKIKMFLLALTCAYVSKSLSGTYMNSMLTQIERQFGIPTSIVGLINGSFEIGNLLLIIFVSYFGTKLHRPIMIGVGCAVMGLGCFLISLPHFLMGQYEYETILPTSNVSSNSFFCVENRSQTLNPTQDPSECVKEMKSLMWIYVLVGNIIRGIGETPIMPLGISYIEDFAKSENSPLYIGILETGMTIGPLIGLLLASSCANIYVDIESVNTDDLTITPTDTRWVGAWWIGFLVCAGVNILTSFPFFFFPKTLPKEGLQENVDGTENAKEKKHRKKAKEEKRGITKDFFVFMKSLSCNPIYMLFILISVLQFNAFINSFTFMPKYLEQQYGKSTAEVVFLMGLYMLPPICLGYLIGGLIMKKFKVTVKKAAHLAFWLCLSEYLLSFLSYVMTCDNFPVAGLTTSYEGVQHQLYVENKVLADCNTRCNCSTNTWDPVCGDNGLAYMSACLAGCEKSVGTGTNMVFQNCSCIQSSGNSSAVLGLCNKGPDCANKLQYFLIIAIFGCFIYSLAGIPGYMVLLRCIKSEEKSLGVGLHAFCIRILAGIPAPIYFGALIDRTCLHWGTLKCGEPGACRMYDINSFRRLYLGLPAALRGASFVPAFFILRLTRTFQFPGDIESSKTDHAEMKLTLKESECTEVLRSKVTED
Protocol: (§1) 293FT cells were purchased from Thermo Fisher Scientific, Inc.. The cells were grown in Dulbecco's modified Eagle medium (supplemented with 4.5 g/L glucose and 2 mM L‐glutamine) at 37°C, 5% CO2, and 95% humidity. The cells were passaged 3 times per week by harvesting cells using trypsin and plating at a density of 1.0 × 10^4 cells/cm^2 in a 10 cm cell culture plate for maintenance culture. The 293FT cells were detached using trypsin and re‐seeded at a density of 2.5 × 10^4 cells/cm^2 in BioCoat™ Collagen I 6‐well plates (Corning Inc.) for transfection and then treated with 1.2 μg of plasmid vector and 3.2 μl of Lipofectamine™ 2000 Transfection Reagent (Thermo Fisher Scientific, Inc.) according to the manufacturer's instructions. After a 3‐h treatment, the transfection medium was replaced with a fresh cell culture medium and incubated at 37°C with 95% humidity and 5% CO2 until ready for the assay.
(§2) Transport experiments were conducted approximately 24 h post‐transfection. The experiments were initiated by aspirating culture medium and addition of pre‐warmed radiolabeled substrate solution (final 1.0% of acetonitrile or 0.9% of ethanol in phosphate‐buffered saline (PBS[−])) to each well. After a 10‐min incubation, cells were washed twice with 1 ml of ice‐cold PBS(−) and lysed with 700 μl of 1.0 M NaOH for 3 h or more at room temperature. The lysate was transferred to a 1.5‐ml tube, and neutralized with 350 μl of 2.0 M HCl and 350 μl of 2.0% sodium dodecyl sulfate (SDS) solution. From the lysate, 1.0 ml was transferred to a vial containing 10 ml of Emulsifier Scintillator Plus to measure the radioactivity in the LSC. The protein concentration of the cell lysate was also measured using a Pierce™ BCA Protein Assay Kit (Thermo Fisher Scientific, Inc.), which was used to normalize, according to the cell number, the radioactivity in the cell lysate extract. The protein assay was performed in duplicate. Each sample type was assayed in triplicate wells, and each run was performed twice. When the difference in mean uptake between OATP expressing cells and mock cells was more than 2 times, the OATP was judged to be involved in transportation of the substrate. […] Each sample type was assayed in triplicate wells.

human OATP2B1 = target: T2, human OATP2B1 (Homo sapiens, UniProt O94956); assay: Uptake assay for radiolabeled substrates, human OATP2B1 expressing 293FT cells; assay type: in vitro ADME; conditions: 10‐min incubation
T2 construct: expressed in transfected cells; host or cells: 293FT cells
T2 sequence (O94956 1-709): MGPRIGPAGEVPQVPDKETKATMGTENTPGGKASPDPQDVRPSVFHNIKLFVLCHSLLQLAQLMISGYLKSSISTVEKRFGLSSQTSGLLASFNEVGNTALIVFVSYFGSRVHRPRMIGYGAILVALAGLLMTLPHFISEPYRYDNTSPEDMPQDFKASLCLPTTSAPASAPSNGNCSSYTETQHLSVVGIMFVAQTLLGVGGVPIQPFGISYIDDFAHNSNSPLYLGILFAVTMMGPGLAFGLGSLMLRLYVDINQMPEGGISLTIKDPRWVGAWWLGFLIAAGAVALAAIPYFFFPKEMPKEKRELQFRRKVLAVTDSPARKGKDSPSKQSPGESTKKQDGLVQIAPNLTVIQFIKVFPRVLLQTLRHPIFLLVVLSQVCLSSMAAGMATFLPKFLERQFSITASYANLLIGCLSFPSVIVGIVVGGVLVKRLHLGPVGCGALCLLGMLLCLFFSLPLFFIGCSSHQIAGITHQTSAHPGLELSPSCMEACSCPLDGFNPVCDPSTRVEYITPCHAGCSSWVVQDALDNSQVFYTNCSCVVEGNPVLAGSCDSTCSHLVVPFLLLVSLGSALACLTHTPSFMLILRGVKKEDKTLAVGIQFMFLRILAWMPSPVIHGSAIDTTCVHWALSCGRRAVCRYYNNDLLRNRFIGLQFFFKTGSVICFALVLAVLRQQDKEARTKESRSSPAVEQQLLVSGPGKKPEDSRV
Protocol: as §1, §2

mitochondrial PPO = test system: mitochondrial PPO; design: method as in PMID 34908893; conditions: cited from earlier work

Row | SMILES | Ratio of uptake amount relative to the uptake into mock cells (rat Oatp1a4; Run_1) | Ratio of uptake amount relative to the uptake into mock cells (rat Oatp1a4; Run_2) | Ratio of uptake amount relative to the uptake into mock cells (human OATP2B1; Run_1) | Ratio of uptake amount relative to the uptake into mock cells (human OATP2B1; Run_2) | PPO inhibitory activity (in words) (mitochondrial PPO; PPO inhibition study) | Inhibitory activity against mitochondrial PPO, mice relative to humans (mitochondrial PPO; higher in mice than in humans)
1 | C[C@]12CC[C@@H]3c4ccc(OS(=O)(=O)O)cc4CC[C@H]3[C@@H]1CCC2=O [E3S, Estrone 3‐sulfate] | 2.2 | 1.4 | 16.2 | 1.9 | – | –
2 | C[C@]12CC[C@@H]3c4ccc(O)cc4CC[C@H]3[C@@H]1CC[C@@H]2O[C@@H]1O[C@H](C(=O)O)[C@@H](O)[C@H](O)[C@H]1O [E217βG, Estradiol 17β‐D‐glucuronide] | 6.1 | 10.4 | 1.9 | 0.6 | – | –
3 | Cn1c(C(F)(F)F)cc(=O)n(-c2cc(Oc3cccnc3OCC(=O)O)c(Cl)cc2F)c1=O [S‐3100‐CA] | 5.0 | 4.1 | 2.6 | 1.9 | comparable inhibitory activity to that of the parent epyrifenacil | 10 times
